Data on 15 compounds can be found in paper PMC7504348 (Molecules, 2020).

Structures are written as SMILES. Read-outs that look alike come from different tables or passages of the source.

In one test the target is T1, β-secretase (BACE-1) (Homo sapiens, UniProt P56817).
T1 construct: purchased Sigma–Aldrich
The test can be described thus: biochemical. The note with it: reported with SD. As to the method: β-secretase (BACE-1) Activity Detection Kit (Fluorescent) was purchased from Sigma–Aldrich and used to determine the effect of the synthesized chalcones on β-secretase activity. The assay was carried out according to the manufacturer’s protocol. The enzyme solution (0.3 units/uL, 2 μL) was reacted with the 50 μM of the substrate (7-methoxycumarin- 4-acetyl-(Asn670, Lue671)-amyloid β/A4 precursor protein 770 fragment 667–676-(2,4-dinitrophenyl))Lys-Arg-Arg amide trifluoroacetate salt and sulfated polysaccharide samples (2–5 mg/mL) in a fluorescence assay buffer in different wells. Baseline readings were measure immediately on a Hitachi F-7000 (excitation: 320 nm; emission: 405 nm) fluorescence spectrophotometer and repeated after 2 h incubation at 37 °C. […] The method was as described earlier.

In test [1] the target is T2, acetylcolinesterase from electric eel (Type VI) (Electrophorus electricus, UniProt O42275).
T2 construct: purified acetylcolinesterase from electric eel (Type VI); tissue Type VI; host or cells: electric eel
The test is described as follows: biochemical. Conditions: reported with SD; assayed in triplicate; read-out: AChE IC50. As to the method: The assay was performed in 96-well microtiter plates in the same condition for both chalcones and control substance. 25 µL of 100 mM sodium phosphate buffer pH 8, 25 µL of sample and 25 µL acetylcholinesterase solutions containing 0.54 U/mL were mixed in each well of the plate and allowed to incubate for 15 min at 25 °C. Subsequently, 25 µL of a solution of ATCI (15 mM, dissolved in water) and 125 µL of 3 mM DTNB (5,5’-dithio-bis-nitro benzoic acid) were added. The absorbance at 405 nm was recorded during the first 5 min of the reaction. […] Percentages (%) of AChE inhibitions of tested compounds were calculated from the absorbance values as indicated in Equation (1):% I = [(A0E − A0) − (Ac − A0C)]/(A0E − A0)(1) where I is the percent inhibition of acetylcholinesterase; A0E is the absorbance value of the control blank sample with enzyme; A0 is the absorbance value of blank sample; Ac is the absorbance value of the tested sample; A0C is the absorbance value of blank test sample.
The method was as described earlier.

Another test deals with AChE. Conditions: dataset for 2D-QSAR model, Ellman's method, galantamine as reference; cited from earlier work. For orientation: DTNB colorimetry detects thiols as they appear.
The mark [2] stands for this setting: pIC50 = −logIC50, read-out: BACE-1 pIC50 Observed (converted).

T1 sequence (P56817 46-501): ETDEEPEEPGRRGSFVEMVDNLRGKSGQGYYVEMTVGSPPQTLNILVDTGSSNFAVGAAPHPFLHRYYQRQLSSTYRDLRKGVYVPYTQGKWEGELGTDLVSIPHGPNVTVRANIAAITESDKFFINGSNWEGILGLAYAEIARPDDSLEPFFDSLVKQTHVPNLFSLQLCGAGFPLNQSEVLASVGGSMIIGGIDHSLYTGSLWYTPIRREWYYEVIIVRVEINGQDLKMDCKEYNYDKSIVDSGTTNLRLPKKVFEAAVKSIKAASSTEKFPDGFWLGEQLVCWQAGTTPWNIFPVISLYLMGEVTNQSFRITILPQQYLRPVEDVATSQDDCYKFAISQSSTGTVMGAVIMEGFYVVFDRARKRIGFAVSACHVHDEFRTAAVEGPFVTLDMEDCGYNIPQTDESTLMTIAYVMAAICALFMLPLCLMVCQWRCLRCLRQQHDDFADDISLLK
T2 sequence (O42275 24-633): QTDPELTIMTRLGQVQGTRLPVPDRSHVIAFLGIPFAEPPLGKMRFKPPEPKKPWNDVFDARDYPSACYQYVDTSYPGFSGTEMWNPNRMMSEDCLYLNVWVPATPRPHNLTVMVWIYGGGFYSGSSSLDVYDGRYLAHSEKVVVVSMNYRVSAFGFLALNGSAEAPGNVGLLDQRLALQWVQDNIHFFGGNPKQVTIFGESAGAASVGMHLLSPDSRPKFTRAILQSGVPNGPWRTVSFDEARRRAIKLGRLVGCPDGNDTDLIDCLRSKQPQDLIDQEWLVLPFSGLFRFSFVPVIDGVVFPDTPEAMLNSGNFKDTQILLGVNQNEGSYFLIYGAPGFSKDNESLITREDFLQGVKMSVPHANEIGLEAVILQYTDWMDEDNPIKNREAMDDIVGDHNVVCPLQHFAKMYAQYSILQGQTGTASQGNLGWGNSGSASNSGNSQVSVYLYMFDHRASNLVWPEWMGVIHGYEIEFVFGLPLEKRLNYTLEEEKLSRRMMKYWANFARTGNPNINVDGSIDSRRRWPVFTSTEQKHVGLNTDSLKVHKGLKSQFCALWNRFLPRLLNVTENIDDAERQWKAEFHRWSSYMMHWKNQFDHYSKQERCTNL

Consider `CN(C)CCCN1c2ccccc2Sc2ccc(C(=O)/C=C/c3ccccc3)cc21` [AC1, (E)-1-(10-(3-(dimethylamino)propyl)-10H-phenothiazin-2-yl)-3-phenylprop-2-en-1-one], for which the IC50 was 6.31 µM at β-secretase (BACE-1) (setting [2]), 6.34 ± 0.46 µM on β-secretase (BACE-1) (read-out: BACE-1 IC50) and 33.9 ± 1.45 µM in test [1].

Consider `COc1cccc(/C=C/C(=O)c2ccc3c(c2)N(CCCN(C)C)c2ccccc2S3)c1` [AC2, (E)-1-(10-(3-(dimethylamino)propyl)-10H-phenothiazin-2-yl)-3-(3-methoxyphenyl)prop-2-en-1-one], for which the IC50 is 3.02 µM at β-secretase (BACE-1) (setting [2]), 3 µM on β-secretase (BACE-1) (read-out: BACE-1 IC50) and 30.9 ± 2.1 µM in test [1].

In the case of `COc1ccc(/C=C/C(=O)c2ccc3c(c2)N(CCCN(C)C)c2ccccc2S3)cc1` [AC3, (E)-1-(10-(3-(dimethylamino)propyl)-10H-phenothiazin-2-yl)-3-(4-methoxyphenyl)prop-2-en-1-one], the IC50 on β-secretase (BACE-1) (setting [2]) is 4.47 µM; on β-secretase (BACE-1) (read-out: BACE-1 IC50) it was 4.48 ± 0.4 µM; in test [1], 11.5 ± 1.29 µM.

With `COc1cc(/C=C/C(=O)c2ccc3c(c2)N(CCCN(C)C)c2ccccc2S3)cc(OC)c1OC` [AC4, (E)-1-(10-(3-(dimethylamino)propyl)-10H-phenothiazin-2-yl)-3-(3,4,5-trimethoxyphenyl)prop-2-en-1-one], the IC50 was 0.155 µM on β-secretase (BACE-1) (setting [2]), 0.16 ± 0.03 µM at β-secretase (BACE-1) (read-out: BACE-1 IC50) and 3.63 ± 0.61 µM in test [1].

Regarding `CN(C)CCCN1c2ccccc2Sc2ccc(C(=O)/C=C/c3ccc(Cl)cc3)cc21` [AC5], the IC50 is 1.23 µM at β-secretase (BACE-1) (setting [2]), 1.24 ± 0.12 µM at β-secretase (BACE-1) (read-out: BACE-1 IC50) and 60.3 ± 1.84 µM in test [1].

In the case of `CN(C)CCCN1c2ccccc2Sc2ccc(C(=O)/C=C/c3ccc(Cl)cc3Cl)cc21` [AC6], the IC50 on β-secretase (BACE-1) (setting [2]) is 0.501 µM; at β-secretase (BACE-1) (read-out: BACE-1 IC50) it was 0.5 µM; in test [1], 20 ± 1.57 µM.

With `CN(C)CCCN1c2ccccc2Sc2ccc(C(=O)/C=C/c3c(F)cccc3Cl)cc21` [AC7], the IC50 is 0.447 µM on β-secretase (BACE-1) (setting [2]), 0.45 ± 0.04 µM at β-secretase (BACE-1) (read-out: BACE-1 IC50) and 40.7 ± 2.48 µM in test [1].

In the case of `CN(C)CCCN1c2ccccc2Sc2ccc(C(=O)/C=C/c3ccccc3Cl)cc21` [AC8], the IC50 was 2.95 µM at β-secretase (BACE-1) (setting [2]), 2.97 ± 0.05 µM at β-secretase (BACE-1) (read-out: BACE-1 IC50) and 15.8 ± 1.08 µM in test [1].

As for `CN(C)CCCN1c2ccccc2Sc2ccc(C(=O)/C=C/c3ccc(F)cc3)cc21` [AC9, (E)-1-(10-(3-(dimethylamino)propyl)-10H-phenothiazin-2-yl)-3-(4-fluorophenyl)prop-2-en-1-one], the IC50 on β-secretase (BACE-1) (setting [2]) is 3.72 µM; at β-secretase (BACE-1) (read-out: BACE-1 IC50) it was 3.72 ± 0.21 µM; in test [1], 25.1 ± 0.83 µM.

`CN(C)CCCN1c2ccccc2Sc2ccc(C(=O)/C=C/c3cccc(Br)c3)cc21` [AC10]: the IC50 at β-secretase (BACE-1) (setting [2]) is 2 µM; on β-secretase (BACE-1) (read-out: BACE-1 IC50) it was 1.99 ± 0.21 µM; in test [1], 24.6 ± 1.09 µM.

Regarding `CN(C)CCCN1c2ccccc2Sc2ccc(C(=O)/C=C/c3ccccc3C(F)(F)F)cc21` [AC11], the IC50 on β-secretase (BACE-1) (setting [2]) was 0.398 µM; at β-secretase (BACE-1) (read-out: BACE-1 IC50), 0.4 µM; in test [1] it was 186 ± 4.52 µM.

For the compound `CN(C)CCCN1c2ccccc2Sc2ccc(C(=O)/C=C/c3ccc(N(C)C)cc3)cc21` [AC12], the figures for the IC50 (on β-secretase (BACE-1) (setting [2]); on β-secretase (BACE-1) (read-out: BACE-1 IC50); in test [1]) were 0.347 µM, 0.35 ± 0.04 µM and 1.1 ± 0.24 µM, respectively.

For the compound `CN(C)CCCN1c2ccccc2Sc2ccc(C(=O)/C=C/c3ccc(OCc4ccccc4)cc3)cc21` [AC13], the IC50 at β-secretase (BACE-1) (setting [2]) is 3.02 µM; at β-secretase (BACE-1) (read-out: BACE-1 IC50) it was 3.03 ± 0.21 µM; in test [1], 11.8 ± 0.63 µM.

For the compound `O=C(Nc1ccc(F)cc1)Nc1nc(-c2cc3cc([N+](=O)[O-])ccc3o2)cs1` [CHEMBL3617396], the “pIC50 (AChE dataset, Table S4)” value in the test on AChE is listed as 4.39.

Consider `O=C(Nc1ccc(Cl)cc1)Nc1nc(-c2cc3cc([N+](=O)[O-])ccc3o2)cs1` [CHEMBL3617397], for which the “pIC50 (AChE dataset, Table S4)” value in the test on AChE is 4.52.
